Laboratory results reported in US20130266528A1, “SKIN LIGHTENING COMPOSITION” (priority 2010, published 2013).
Structures can show the parent of a compound that is named as a salt.

How the values were obtained:
[1] = tested on: HaCaT keratinocyte cells; experiment: Highest concentration above which the active exhibited cytotoxicity; assay type: cell-based; details: keratinocyte differentiation experiment of table 2
[2] = tested on: HaCaT keratinocyte cells; experiment: Keratinocyte differentiation (acridine orange staining); assay type: cell-based; details: 24 hrs, average of minimum three replicates
Description: Several dicarboxylic acids were tested in an in-vitro assay viz. keratinocyte differentiation which is a well known pathway leading to skin lightening. The assay protocol is given below: 5×10^4 HaCaT keratinocyte cells/well were grown in 24 well plates for 24 hours. Cells were cultured with actives for 24 hrs. Cells were then washed with Phosphated buffer solution (PBS) and stained with 5 μg/ml acridine orange. Cells were immediately viewed using an epi-fluorescent microscope (Olympus BX 50), at 20× magnification, using appropriate excitation and barrier filters, to simultaneously view red and green fluorescence (excitation: 460 nm and emission>515 nm). The entire plate was scanned and the percentage of differentiated keratinocytes (cells with red fluorescence evenly distributed within the cytoplasm) was estimated. Data is represented as % control.

[3] = tested on: B16 melanocytes; details: 1 mM active, 24 hrs, average of minimum three replicates
Description: B16 melanocytes were cultured in 60 mm^2 petriplates for 2-3 days or until they reached ˜70% confluency and then actives were added and incubated for 24 hrs. Cells were harvested and protein content was estimated using Bradford method. The cells were then solubilized in 0.1N NaOH and melanin was estimated. Data are then calculated as mg melanin/mg protein and represented as % control. Decreased numbers indicate inhibition of melanin synthesis by the actives.

Compound	Conc. of active = highest possible concentration above which the active exhibited cytotoxicity [1] [µM]	% Keratinocyte differentiation, average ([2]; 10 mM active) [% control]	also measured
O=C(O)CCCCCCCCC(=O)O [sebacic acid]	5000	–	% Keratinocyte differentiation, average ([2]; 5 mM active): 130 % control
O=C(O)/C=C/C(=O)O [disodium fumarate]	10000	183	–
O=C(O)CCCCCCCC(=O)O [azeleic acid]	5500	–	% Keratinocyte differentiation, average ([2]; 5.5 mM active): 175 % control
O=C([O-])CCC(=O)[O-].[Na+].[Na+] [sodium succinate]	6000	–	% Keratinocyte differentiation, average ([2]; 6 mM active): 155 % control
CCCC(=O)[O-].[Na+] [sodium butyrate]	1000	–	% Keratinocyte differentiation, average ([2]; 1 mM active): 174 % control; Melanin (mg melanin/mg protein), average [3]: 92 % control
O=C([O-])C(O)C(O)C(=O)[O-].[Na+].[Na+] (stereo not shown) [sodium tartarate]	10000	165	–
